Experimental data as given in patent US10766869B2, “Triazoles for the treatment of demyelinating dieases” (Vertex Pharmaceuticals Incorporated, priority 2015, dated 2020).

System: primary rat mixed cortical cells
Assay: In vitro myelination assay (MBP positive myelin strands, fold myelin pixels above background)
Type: cell-based
Settings: Rattus norvegicus, read-out: Fold myelin pixels above background relative to baseline of no added compound; for fold induction at 1 µM: 1.0 μM compound; for fold induction at 10 µM: 10.0 μM compound
Outline: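 Read-out is total MBP-positive myelin strand pixels per well, detected by custom ridge-tracing software and reported as fold over untreated baseline. Primary P1 rat mixed cortical cells received compound (1.0 or 10.0 μM) for 14 days, with medium half-replaced on days 6 and 10. Standard deviation was taken across all replicates.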

Structure (SMILES)	fold induction at 1 µM	fold induction at 10 µM
Cc1cc(Nc2ncn(-c3cc(F)cc(F)c3)n2)cc(N2CCC(OCCN(C)C)CC2)c1 [Compound 933, 1-(3,5-difluorophenyl)-N-[3-[4-[2-(dimethylamino)ethoxy]-1-piperidyl]-5-methyl-phenyl]-1,2,4-triazol-3-amine]	1 to 10	≤ 1
COCCN1CC(Nc2cc(C)cc(Nc3ncn(-c4cc(F)cc(F)c4)n3)c2)CC1=O (stereo not shown) [Compound 934, 4-[3-[[1-(3,5-difluorophenyl)-1,2,4-triazol-3-yl]amino]-5-methyl-anilino]-1-(2-methoxyethyl)pyrrolidin-2-one]	10 to 100	≤ 1
[2H]C1([2H])N(CC(F)F)C([2H])([2H])C([2H])([2H])N(c2cc(C)cc(Nc3ncn(-c4cc(F)cc(F)c4)n3)c2)C1([2H])[2H] [Compound 935, 1-(3,5-difluorophenyl)-N-[3-methyl-5-[2,2,3,3,5,5,6,6-octadeuterio-4-(2,2-difluoroethyl)piperazin-1-yl]phenyl]-1,2,4-triazol-3-amine]	10 to 100	
Cc1cc(Nc2ncn(-c3cc(F)cc(F)c3)n2)cc(N2CCN(CC3CCOC3)CC2)c1 (stereo not shown) [Compound 936, 1-(3,5-difluorophenyl)-N-[3-methyl-5-[4-(tetrahydrofuran-3-ylmethyl)piperazin-1-yl]phenyl]-1,2,4-triazol-3-amine]	10 to 100	≤ 1
COCC1(CNc2cc(C)cc(Nc3ncn(-c4cc(F)cc(F)c4)n3)c2)CC1 [Compound 937, N1-[1-(3,5-difluorophenyl)-1,2,4-triazol-3-yl]-N3-[[1-(methoxymethyl)cyclopropyl]methyl]-5-methyl-benzene-1,3-diamine]	1 to 10	≤ 1
Cc1cc(NCC2(C(=O)N(C)C)CCCC2)cc(Nc2ncn(-c3cc(F)cc(F)c3)n2)c1 [Compound 938, 1-[[3-[[1-(3,5-difluorophenyl)-1,2,4-triazol-3-yl]amino]-5-methyl-anilino]methyl]-N,N-dimethyl-cyclopentanecarboxamide]	1 to 10	≤ 1
Cc1cc(Nc2ncn(-c3cc(F)cc(F)c3)n2)cc(NC2CCCCC2N2CCOCC2)c1 (stereo not shown) [Compound 939, N3-[1-(3,5-difluorophenyl)-1,2,4-triazol-3-yl]-5-methyl-N1-(2-morpholinocyclohexyl)benzene-1,3-diamine]	1 to 10	≤ 1
Cc1cc(NCCN2CC[S+]([O-])CC2)cc(Nc2ncn(-c3cc(F)cc(F)c3)n2)c1 [Compound 940, N1-[1-(3,5-difluorophenyl)-1,2,4-triazol-3-yl]-5-methyl-N3-[2-(1-oxo-1,4-thiazinan-4-yl)ethyl]benzene-1,3-diamine]	10 to 100	1 to 10
Cc1cc(Nc2ncn(-c3cc(F)cc(F)c3)n2)cc(N2CCN(CC(C)(C)O)C(C)C2)c1 (stereo not shown) [Compound 941, 1-[4-[3-[[1-(3,5-difluorophenyl)-1,2,4-triazol-3-yl]amino]-5-methyl-phenyl]-2-methyl-piperazin-1-yl]-2-methyl-propan-2-ol]	1 to 10	1 to 10
Cc1cc(NCC2CC2)cc(Nc2ncn(-c3cc(F)cc(F)c3)n2)c1 [Compound 942, N3-(cyclopropylmethyl)-N1-[1-(3,5-difluorophenyl)-1,2,4-triazol-3-yl]-5-methyl-benzene-1,3-diamine]	1 to 10	≤ 1
Cc1cc(Nc2ncn(-c3cc(F)cc(F)c3)n2)cc(N2CCN(CCN3CCCC3)CC2)c1 [Compound 944, 1-(3,5-difluorophenyl)-N-[3-methyl-5-[4-(2-pyrrolidin-1-ylethyl)piperazin-1-yl]phenyl]-1,2,4-triazol-3-amine]	1 to 10	≤ 1
Cc1cc(Nc2ncn(-c3cc(F)cc(F)c3)n2)cc(N2CCN(CCCN3CCCC3)CC2)c1 [Compound 945, 1-(3,5-difluorophenyl)-N-[3-methyl-5-[4-(3-pyrrolidin-1-ylpropyl)piperazin-1-yl]phenyl]-1,2,4-triazol-3-amine]	1 to 10	≤ 1
Cc1cc(NCC2CN(C(CO)CO)C2)cc(Nc2ncn(-c3cc(F)cc(F)c3)n2)c1 [Compound 946, 2-[3-[[3-[[1-(3,5-difluorophenyl)-1,2,4-triazol-3-yl]amino]-5-methyl-anilino]methyl]azetidin-1-yl]propane-1,3-diol]	≤ 1	≤ 1
[2H]C1([2H])N(CC)C([2H])([2H])C([2H])([2H])N(c2cc(C)cc(Nc3ncn(-c4cc(F)cc(F)c4)n3)c2)C1([2H])[2H] [Compound 947, 1-(3,5-difluorophenyl)-N-[3-methyl-5-(2,2,3,3,5,5,6,6-octadeuterio-4-ethyl-piperazin-1-yl)phenyl]-1,2,4-triazol-3-amine]	1 to 10	≤ 1
Cc1cc(Nc2ncn(-c3cc(F)cc(F)c3)n2)cc(N2CCC(N(C)C)CC2)c1 [Compound 948, 1-[3-[[1-(3,5-difluorophenyl)-1,2,4-triazol-3-yl]amino]-5-methyl-phenyl]-N,N-dimethyl-piperidin-4-amine]	10 to 100	≤ 1
Cc1cc(Nc2ncn(-c3cc(F)cc(F)c3)n2)cc(N2CCN(CC3COCCO3)CC2)c1 (stereo not shown) [Compound 949, 1-(3,5-difluorophenyl)-N-[3-[4-(1,4-dioxan-2-ylmethyl)piperazin-1-yl]-5-methyl-phenyl]-1,2,4-triazol-3-amine]	10 to 100	10 to 100
Cc1cc(Nc2ncn(-c3cc(F)cc(F)c3)n2)cc(N2CCC(OCCF)CC2)c1 [Compound 950, 1-(3,5-difluorophenyl)-N-[3-[4-(2-fluoroethoxy)-1-piperidyl]-5-methyl-phenyl]-1,2,4-triazol-3-amine]	10 to 100	1 to 10
Cc1cc(NCC2(N3CCOCC3)CC2)cc(Nc2ncn(-c3cc(F)cc(F)c3)n2)c1 [Compound 951, N1-[1-(3,5-difluorophenyl)-1,2,4-triazol-3-yl]-5-methyl-N3-[(1-morpholinocyclopropyl)methyl]benzene-1,3-diamine]	1 to 10	≤ 1
Cc1cc(Nc2ncn(-c3cnccn3)n2)c(F)c(OC2CCOC2)c1 (stereo not shown) [Compound 952, N-(2-fluoro-5-methyl-3-tetrahydrofuran-3-yloxy-phenyl)-1-pyrazin-2-yl-1,2,4-triazol-3-amine]	1 to 10	1 to 10
Cc1cc(NC2CCOC2)cc(Nc2ncn(-c3cc(F)cc(F)c3)n2)c1F (stereo not shown) [Compound 953, N3-[1-(3,5-difluorophenyl)-1,2,4-triazol-3-yl]-4-fluoro-5-methyl-N1-tetrahydrofuran-3-yl-benzene-1,3-diamine]	1 to 10	1 to 10
Cc1cc(Nc2ncn(-c3cc(F)cc(F)c3)n2)cc(N2CCOC(CN3CCN(C)CC3)C2)c1 (stereo not shown) [Compound 954, 1-(3,5-difluorophenyl)-N-[3-methyl-5-[2-[(4-methylpiperazin-1-yl)methyl]morpholin-4-yl]phenyl]-1,2,4-triazol-3-amine]	1 to 10	≤ 1
Cc1cc(Nc2ncn(-c3cccc(F)c3)n2)c(F)c(N2CCN(C3COC3)CC2)c1 [Compound 955, N-[2-fluoro-5-methyl-3-[4-(oxetan-3-yl)piperazin-1-yl]phenyl]-1-(3-fluorophenyl)-1,2,4-triazol-3-amine]	10 to 100	1 to 10
Cc1cc(Nc2ncn(-c3cc(F)cc(F)c3)n2)cc(N2CCN(C3CCN(C)CC3)CC2)c1 [Compound 956, 1-(3,5-difluorophenyl)-N-[3-methyl-5-[4-(1-methyl-4-piperidyl)piperazin-1-yl]phenyl]-1,2,4-triazol-3-amine]	≤ 1	≤ 1
CCC(O)CN1CCN(c2cc(C)cc(Nc3ncn(-c4cc(F)cc(F)c4)n3)c2)CC1 (stereo not shown) [Compound 957, 1-[4-[3-[[1-(3,5-difluorophenyl)-1,2,4-triazol-3-yl]amino]-5-methyl-phenyl]piperazin-1-yl]butan-2-ol]	10 to 100	≤ 1
Cc1cc(Nc2ncn(-c3cc(F)cc(F)c3)n2)cc(N2CCOC(CCO)C2)c1 (stereo not shown) [Compound 958, 2-[4-[3-[[1-(3,5-difluorophenyl)-1,2,4-triazol-3-yl]amino]-5-methyl-phenyl]morpholin-2-yl]ethanol]	10 to 100	≤ 1
[2H]C([2H])([2H])C(=O)N1C([2H])([2H])C([2H])([2H])N(c2cc(C)cc(Nc3ncn(-c4cc(F)cc(F)c4)n3)c2)C([2H])([2H])C1([2H])[2H] [Compound 959, 2,2,2-trideuterio-1-[2,2,3,3,5,5,6,6-octadeuterio-4-[3-[[1-(3,5-difluorophenyl)-1,2,4-triazol-3-yl]amino]-5-methyl-phenyl]piperazin-1-yl]ethanone]	1 to 10	≤ 1
CCC(CN1CCOCC1)Nc1cc(C)cc(Nc2ncn(-c3cc(F)cc(F)c3)n2)c1 (stereo not shown) [Compound 960, N3-[1-(3,5-difluorophenyl)-1,2,4-triazol-3-yl]-5-methyl-N1-[1-(morpholinomethyl)propyl]benzene-1,3-diamine]	1 to 10	≤ 1
[2H]C1([2H])N(C(=O)C2CC2)C([2H])([2H])C([2H])([2H])N(c2cc(C)cc(Nc3ncn(-c4cc(F)cc(F)c4)n3)c2)C1([2H])[2H] [Compound 961, cyclopropyl-[2,2,3,3,5,5,6,6-octadeuterio-4-[3-[[1-(3,5-difluorophenyl)-1,2,4-triazol-3-yl]amino]-5-methyl-phenyl]piperazin-1-yl]methanone]	1 to 10	1 to 10
